One compound from paper PMC4560413, “Ethyl Pyruvate Emerges as a Safe and Fast Acting Agent against Trypanosoma brucei by Targeting Pyruvate Kinase Activity” (PLoS ONE, 2015) can be followed below.

The target of the test is T1, pyruvate kinase (PK-1 from rabbit muscle) (Oryctolagus cuniculus, UniProt P11974).
T1 construct: gene PKM; purified PK-1 from rabbit muscle
Put plainly: enzyme kinetics, ATP production by luminescence (CellTiter-Glo), competitive model fit. It counts as biochemical. (In general: Cellular ATP, detected with luciferase, serves as a proxy for viable cell number.)

For orientation: Ki means the equilibrium dissociation constant of an inhibitor or competing ligand from its target.

Each structure is given as a SMILES string.

T1 sequence (P11974 2-531): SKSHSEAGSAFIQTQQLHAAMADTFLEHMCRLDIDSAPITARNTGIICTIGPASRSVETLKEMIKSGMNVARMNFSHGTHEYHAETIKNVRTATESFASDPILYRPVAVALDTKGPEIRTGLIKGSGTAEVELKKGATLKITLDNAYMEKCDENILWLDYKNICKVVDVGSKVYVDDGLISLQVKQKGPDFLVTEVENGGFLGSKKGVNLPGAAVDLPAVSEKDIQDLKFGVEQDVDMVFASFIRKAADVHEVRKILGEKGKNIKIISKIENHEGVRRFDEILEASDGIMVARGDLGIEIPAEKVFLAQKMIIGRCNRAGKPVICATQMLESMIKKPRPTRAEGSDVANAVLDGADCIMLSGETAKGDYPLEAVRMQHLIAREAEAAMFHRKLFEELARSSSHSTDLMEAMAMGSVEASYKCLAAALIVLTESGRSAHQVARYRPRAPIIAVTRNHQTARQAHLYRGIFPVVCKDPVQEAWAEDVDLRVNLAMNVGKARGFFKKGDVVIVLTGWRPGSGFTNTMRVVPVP

In turn, `CCOC(=O)C(C)=O` [ethyl pyruvate] returned a Ki of 3 ± 0.29 mM.
